Values quoted from earlier work as cited in patent US7056909B2, “Alpha v integrin receptor antagonists” (Merck & Co., Inc., priority 2000, dated 2006).

Settings: postmenopausal osteoporotic women, median of 22 months of treatment

## hPTH(1–34): human parathyroid hormone 1-34 fragment (SVSEIQLMHNLGKHLNSMERVEWLRKKLQDVHNF; Parathyroid hormone; UniProt P01270 32-65, looked up, fragment)
  reduction in nonvertebral fractures: 54%
  reduction in spine fractures: ≥ 65%
